According to patent publication US6875750B1, “Aziridine compounds and methods of making and using them” (Max-Planck-Gesellschaft zur Foerderung der Wissenschaften …, priority 1998, dated 2005):

What was measured:
[1] = target: T1, N6-adenine DNA methyltransferase M•TaqI (Thermus aquaticus, UniProt P14385); assay: Enzyme reaction: M•TaqI-catalyzed coupling of cofactor with duplex oligodeoxynucleotide 3•4, followed by anion exchange chromatography; assay type: biochemical; details: duplex 3•4 10 μM, M•TaqI 10 μM, pH 6.0, 37°C
T1 construct: made in house
T1 sequence (P14385 whole entry): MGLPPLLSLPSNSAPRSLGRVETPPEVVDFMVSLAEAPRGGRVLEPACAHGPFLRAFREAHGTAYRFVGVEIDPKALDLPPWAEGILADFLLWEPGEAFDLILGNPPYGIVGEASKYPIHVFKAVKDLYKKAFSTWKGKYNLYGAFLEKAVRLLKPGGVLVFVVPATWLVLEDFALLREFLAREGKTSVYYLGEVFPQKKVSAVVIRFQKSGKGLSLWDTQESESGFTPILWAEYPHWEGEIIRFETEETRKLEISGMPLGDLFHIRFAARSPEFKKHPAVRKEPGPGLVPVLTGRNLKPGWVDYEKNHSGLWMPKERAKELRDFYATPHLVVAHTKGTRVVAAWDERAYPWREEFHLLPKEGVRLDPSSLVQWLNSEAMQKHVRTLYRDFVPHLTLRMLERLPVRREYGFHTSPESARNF
Method: The DNA methyltransferase M•TaqI free of cofactor was prepared as described before (B. Holz, S. Klimasauskas, S. Serva, E. Weinhold, Nucleic Acids Res. 1998, 26, 1076-1083). The enzyme-catalyzed reaction was carried out in a mixture (500 μl) of M•TaqI (5 nmol, 10 μM), duplex oligodeoxynucleotide 3.4 (5 nmol, 10 μM), compound 2 (500 nmol, 1 mM), Tris acetate (20 mM, pH 6,0), potassium acetate (50 mM), magnesium acetate (10 mM) and Triton X-100 (0.01%) at 37°C. The progress of the reaction was monitored by anion exchange chromatography. Aliquots (50 μl) of the reaction mixture were withdrawn after different incubation times, mixed with an urea solution (100 μl, 6 M) and injected onto an anion exchange column (Poros 10 HQ, 10 μm, 4.6×100 mm, PerSeptive Biosystems, Germany). Compounds were eluted with aqueous potassium chloride (0.5 M for 5 min, followed by a linear gradient to 1 M in 30 min, 4 ml/min) in Tris chloride buffer (10 mM, pH 7.6).
The enzyme-catalyzed reaction was carried out in a mixture (500 μl) of cofactor free M-Taql (5 nmol, 10 μM), duplex oligodeoxynucleotide 3•4 (5 nmol, 10 μM), compound 9 (10 nmol, 20 μM), Tris acetate (20 mM, pH 6.0), potassium acetate (50 mM), magnesium acetate (10 mM) and Triton X-100 (0,01%) at 37° C. The progress of the reaction was monitored by anion exchange chromatography (Poros 10 HQ, 10 μm, 4,6×10 mm, PerSeptive Biosystems, Germany). Compounds were eluted with aqueous potassium chloride (0.2 M for 5 min, followed by a linear gradient to 0.5 M in 5 min and to 1 M in 30 min) in Tris chloride buffer (10 mM, pH 7.0). Complete conversion to a new product (containing DNA and protein) with a retention time of 7.9 min was observed after 15 h. […] Then, a solution (4 μl) of proteinase K (31 mg/ml), Tris chloride (50 mM, pH 8.0) and calcium chloride (1 mM) was added, and the reaction mixture was incubated at 37° C. for 1 h. The proteolytic fragmentation was monitored by anion exchange chromatography as described above. […]

[2] = target: T2, C5-cytosine DNA methyltransferase M•HhaI (Haemophilus parahaemolyticus, UniProt P05102); assay: Enzyme reaction: M•HhaI-catalyzed coupling of cofactor with duplex oligodeoxynucleotide 6•7, followed by anion exchange chromatography; assay type: biochemical, Haemophilus haemolyticus; details: duplex 6•7 10 μM, M•HhaI 10 μM, compound 2 1 mM, pH 7.4, 25°C
T2 construct: made in house
T2 sequence (P05102 1-327): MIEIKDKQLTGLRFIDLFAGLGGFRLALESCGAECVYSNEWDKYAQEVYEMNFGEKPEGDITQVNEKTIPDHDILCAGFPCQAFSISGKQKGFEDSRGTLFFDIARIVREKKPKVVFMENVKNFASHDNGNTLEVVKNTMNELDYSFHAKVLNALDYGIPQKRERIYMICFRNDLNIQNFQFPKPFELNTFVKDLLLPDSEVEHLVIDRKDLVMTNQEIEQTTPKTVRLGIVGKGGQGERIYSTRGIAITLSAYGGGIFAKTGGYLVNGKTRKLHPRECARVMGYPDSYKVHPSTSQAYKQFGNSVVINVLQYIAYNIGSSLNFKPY
Method: The DNA methyltransferase M•HhaI free of cofactor was prepared as described before (B. Holz, S. Klimasauskas, S. Serva, E. Weinhold, Nucleic Acids Res. 1998, 26, 1076-1083). The enzyme-catalyzed reaction was carried out in a mixture (500 μl) of M•HhaI (5 nmol, 10 μM), duplex oligodeoxynucleotide 6•7 (5 nmol, 10 μM), compound 2 (500 nmol, 1 mM), Tris chloride (10 mM, pH 7.4), sodium chloride (50 mM), EDTA (0,5 mM) and Triton X-100 (0.01%) at 25° C. The progress of the reaction was monitored by anion exchange chromatography. Aliquots (50 μl) of the reaction mixture were withdrawn after different incubation times, and injected onto an anion exchange column (Poros 10 HQ, 10 μm, 4.6×100 mm, PerSeptive Biosystems, Germany). Compounds were eluted with aqueous potassium chloride (0 M for 5 min, followed by a linear gradient to 0.5 M in 5 min and to 1 M in 30 min, 4 ml/min) in Tris chloride buffer (20 mM, pH. 7.6).

[3] = target: T2, C5-cytosine DNA methyltransferase M•HhaI; assay: Fluorescent labeling of plasmid DNA (pUC19) using M•HhaI; assay type: biochemical, Haemophilus haemolyticus; details: M•HhaI 730 nM, pUC19 40 nM, compound 9 20 μM, pH 6.85, 37°C, 20 h
Method: The enzyme-catalyzed labeling reaction was carried out in a mixture (100 μl) of M-HhaI (730 nM), pUC19 DNA (40 nM, 17 recognition sites for M•HhaI), compound 9 (20 μM), Tris chloride (10 mM, pH 6.85), sodium chloride (50 mM), EDTA (0,5 mM) and P-mercaptoethanol (2 mM) at 37° C. A parallel control experiment was performed without M•HhaI. Aliquots of both incubations after 20 h reaction time were analyzed by anion exchange chromatography as described above (see example 2, 3.1). The obtained chromatograms are shown in FIG. 8 (A: UV detection at 260 nm; B: fluorescence detection).

[4] = target: T1, N6-adenine DNA methyltransferase M•TaqI; assay: Fluorescent labeling of plasmid DNA (pUC19) using M•TaqI; assay type: biochemical; details: M•TaqI 133 nM, pUC19 28 nM, compound 9 20 μM
Method: The enzyme-catalyzed labeling reaction was carried out in a mixture (500 μl) of cofactor free M•TaqI (133 nM), pUC19 DNA (28 nM, 4 recognition sites for M•TaqI), compound 9 (20 μM), Tris acetate (20 mM, pH 6,0), potassium acetate (50 mM), magnesium, acetate (10 mM) and Triton X-100 (0,01%) at 65° C. The progress of the reaction was monitored by anion exchange chromatography (NUCLEOGEN DEAE 4000-7, 7 μm, 125×6,2 mm, Machery-Nagel, Düren, Germany). Compounds were eluted with aqueous potassium chloride (0.2 M for 5 min followed by a linear gradient to 1 M in 30 min) in Tris chloride buffer (10 mM, pH 7.0) containing acetonitrile (20%). The chromatograms of the anion exchange chromatography after different incubation times are shown in FIG. 6 (A: UV detection at 260 nm; B: fluorescence detection). The delay between the observed UV absorption and the fluorescence is due to a spatial separation of the UV detector and the fluorescence detector. The labeling reaction yielding fluorescent pUC19 was completed after 8 h.

| Structure (SMILES) | M•TaqI-catalyzed coupling of the cofactor with DNA ([1]; compound 2 1 mM) | M•HhaI-catalyzed coupling of the cofactor to duplex oligodeoxynucleotide 6•7 [2] | coupling reaction of the fluorescent cofactor with DNA catalyzed by M•TaqI ([1]; compound 9 20 μM) | time to complete conversion of duplex 3•4 to new product (containing DNA and protein) ([1]; compound 9 20 μM) | cofactor function in M•HhaI-catalyzed fluorescent labeling of pUC19 [3] | fluorescence signal of pUC19 in anion exchange chromatography after labeling with M•TaqI ([4]; 65°C, different incubation times) | time to completion of the labeling reaction yielding fluorescent pUC19 ([4]; pH 6.0, 65°C) |
| --- | --- | --- | --- | --- | --- | --- | --- |
| Nc1ncnc2c1ncn2[C@@H]1O[C@H](CN2CC2)[C@@H](O)[C@H]1O [Compound 2, N-Adenosylaziridine] | quantitative, sequence- and base-specific | quantitative |  |  |  |  |  |
| CN(C)c1cccc2c(S(=O)(=O)NCCCCNc3nc4c(N)ncnc4n3[C@@H]3O[C@H](CN4CC4)C(O)[C@@H]3O)cccc12 (stereo partly shown) [Compound 9, 8-Amino[1″-(N″-dansyl)-4″-aminobutyl]-5′-(1-aziridinyl)-5′-deoxy adenosine] |  |  | quantitative and base-specific | 15 h | function as a cofactor for M•HhaI | increase of the fluorescence signal with the incubation time | 8 h |
